In patent publication US8399520B2, “Selective estrogen receptor modulator” (Eisai R&D Management Co., Ltd., priority 2002, dated 2013):
pIC50, pKi: −log10 of the molar value.

Experiments:
[1] = target: T1, estrogen receptor derived from bovine uterus (Bos taurus, UniProt P49884); assay: In vitro estrogen receptor binding assay; details: read-out: Estrogen receptor binding affinity: Ki
T1 construct: estrogen receptor derived from bovine uterus was diluted with the assay buffer solution so that 10 to 20 μg total protein was present; from tissue; host or cells: bovine uterus
T1 sequence (P49884 1-596): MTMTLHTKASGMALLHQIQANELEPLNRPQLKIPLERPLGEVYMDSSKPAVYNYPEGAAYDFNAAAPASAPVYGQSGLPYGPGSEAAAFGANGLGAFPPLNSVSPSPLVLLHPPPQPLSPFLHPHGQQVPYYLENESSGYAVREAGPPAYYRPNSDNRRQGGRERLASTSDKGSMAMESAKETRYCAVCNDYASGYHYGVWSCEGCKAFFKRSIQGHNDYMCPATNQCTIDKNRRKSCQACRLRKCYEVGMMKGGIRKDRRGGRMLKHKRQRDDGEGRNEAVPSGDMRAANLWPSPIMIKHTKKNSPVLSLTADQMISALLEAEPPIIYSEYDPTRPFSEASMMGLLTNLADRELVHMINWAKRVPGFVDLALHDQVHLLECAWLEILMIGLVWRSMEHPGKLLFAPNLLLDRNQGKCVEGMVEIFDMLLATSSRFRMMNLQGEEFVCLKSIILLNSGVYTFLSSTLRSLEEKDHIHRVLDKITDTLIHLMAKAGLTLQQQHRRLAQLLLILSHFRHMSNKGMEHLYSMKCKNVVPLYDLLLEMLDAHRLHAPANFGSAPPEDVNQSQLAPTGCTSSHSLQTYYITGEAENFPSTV
Procedure: The binding affinity of the compound according to the present invention to estrogen receptor was measured using an in vitro estrogen receptor binding assay. The binding affinity measures the ability of the compound according to the present invention to remove [^3H]-estradiol from estrogen receptor derived from bovine uterus. The following materials were used in this assay: (1) the assay buffer solution was 20 mM Tris/HCl (pH 7.5) containing 1 mM dithiothreitol (DTT), 1 mM EDTA and 10% glycerol; (2) radioactive ligand was [^3H]-estradiol purchased from Amersham Life Science; (3) the cold ligand was diethylstilbestrol purchased from sigma (Sigma); and (4) the estrogen receptor was derived from bovine uterus. The compound to be tested was prepared as a 10% DMSO solution. [^3H]-estradiol was dissolved in the assay buffer solution so as to obtain a final concentration of 1 nM. […] Each plate contains total binding, non-specific binding and the binding which were not inhibited by various concentrations of the compound. The plate was incubated for 1 hour at room temperature. […] These mixtures were centrifuged, and the supernatant thereof was evaluated for its radioactivity using a liquid scintillation counter. Specific binding was calculated by subtracting non-specific binding dpm (counts remaining in the supernatant obtained by centrifugal separation of a reaction mixture containing estrogen receptor derived from bovine uterus, radioactive ligand and excess cold ligand) from the total binding dpm (counts remaining in the supernatant obtained by centrifugal separation of a reaction mixture containing estrogen receptor derived from bovine uterus and radioactive ligand only). The effectiveness of the compound was evaluated by Ki. […] C is the concentration of [^3H]-estradiol in the reaction mixture, and Kd is the [^3H]-estradiol dissociation constant. The Kd was determined by Scatchard analysis. That is to say, various concentrations of [^3H]-estradiol were used to measure the concentration of specifically bound [^3H]-estradiol, which served as the horizontal axis, the value which was obtained by dividing the concentration of specifically bound [^3H]-estradiol by the concentration [^3H]-estradiol not bound to the receptor served as the vertical axis to produce a plot, and the negative value of the inverse of the slope of the resulting straight line was used as Kd.

[2] = system: MCF-7 breast cancer cells; assay: MCF-7 growth analysis (estrogen agonist and antagonist activity, MTT assay); assay type: cell-based; details: Homo sapiens; for activity at 0.1 µM: MCF7, MCF-7, 72 hours, growth rate of diluent control = 100, of 17β-estradiol (1 nM) = 200, read-out: Agonist activity: growth rate (100 nM test compound); for pIC50: MCF7, MCF-7 growth with 17β-estradiol (10 pM) present simultaneously, 72 hours
Procedure: Test Example 2 determines the estrogen agonist and antagonist activities of the compound according to the present invention in reproduction system cells. […] The present test was carried out according to the following procedures. MCF-7 breast cancer cells were cultured in the preservation medium until the compound evaluation. The preservation medium is the MEM (minimum essential medium, phenol red-free, Gibco, ##51200-038) supplemented with 10% (volume/volume) fetal bovine serum (FBS), 2 mM L-glutamine, 1 mM sodium pyruvate, non-essential amino acids (0.1 mM, Gibco, #15240-062), and antibiotic-antimycotic solution ( 1/50 of culture medium volume, Gibco). Five days prior to analysis, the preservation medium was exchanged with analytical medium to which 10% charcoal-stripped fetal bovine serum (charcoal-FBS) was added instead of 10% FBS, so as to deprive the MCF-7 cells of endogenous steroids. Twenty-four hours after exchange to the analytical medium, the MCF-7 cells were removed from the preservation flask using cell isolation medium (trypsin-EDTA solution, Gibco). The cells were washed with analytical medium once, and cell suspension at 50,000 cell/ml was prepared using the analytical medium. The prepared cell suspension was added to a 96 well flat-bottomed microculture at […] (5,000 cells) per well, the cells were cultured in a 5% CO2 incubator for 24 hours at 37° C., to equilibrate the cells after cell transfer. […] The cells were further cultured in the 5% CO2 incubator for 72 hours at 37° C. After culturing, the cell growth was examined by the MTT assay. MTT assay was carried out as the following protocols. MTT solution at 8 mg/ml (MTT dissolved in phosphate saline water buffer) was added to the microculture at 10 μl/well, and the cells were cultured in the 5% CO2 incubator for 30 minutes at 37° C. Thereafter, resulting from the reduction of MTT by the cells, formazan crystals were dissolved by adding a dissolution buffer (400 g/l of an aqueous solution of SDS (50%) and dimethylformamide (50%)) to the microculture at 100 μl/well, and incubated the microculture for more than 4 hours in the dark. For each well of the microculture, the optical density at 590 nm due to the dissolved formazan crystals was measured.

ovariectomized rats [3] = assay: Bone resorption in ovariectomized rats: deoxypyridinoline in urine; assay type: in vivo, rat; details: OVX rats, urine
Text: (§1) Ten weeks old Female Fischer rats (F344/N, Japan SLC, Shizuoka, Japan) were used. Rats were grouped to eliminate the effect of body weight between each group and housed with free access to food and water. Animals were anesthetized with Nembutal (Abbott Laboratories, Chicago, Ill.) and the ovaries were removed. In sham-operated group, ovaries were only touched with tweezers. Administration of compounds was started one day after the operation.
(§2) Estradiol (Sigma-Aldrich, St. Louis, Mo.) was dissolved in DMSO to 150 mg/mL then diluted with sesame oil to 0.15 mg/mL. The compounds in Examples 736 and 814, and Raloxifene were suspended in sesame oil to 5, 5 and 1.5 mg/mL, respectively. Samples were divided into aliquots for daily administration and preserved at −18° C. until use.
(§3) The samples were orally administered at 2 mL/kg. Administration was carried out once a day from Monday to Friday for 8 weeks.
Urine was gathered overnight (17 hours) using the metabolic cage under fasting. The amount of urinary deoxypyridinoline was measured with ELISA kit, Osteorincs-DPD (Sumitomo Seiyaku Biomedical Co., Ltd., Osaka, Japan) and evaluated as total amount produced in 17 hours or as the amount per 1 mg of creatinine.

ovariectomized rats [4] = assay: Ovariectomized rats: bone density of femur and fifth lumbar vertebrae; assay type: in vivo, rat; details: OVX rats, 8 weeks
Text: as §1, §2, §3
After animals were sacrificed by decapitation, left femur and the fifth lumbar vertebrae were removed. The bone density was measured by using QDR-1000/W (Ho logic Inc., Bedford, Mass.).

ovariectomized rats [5] = assay: Ovariectomized rats: uterus wet weight; assay type: in vivo, rat
Text: as §1, §2, §3
After animals were sacrificed by decapitation, uterus was removed and adipose tissue and vagina was separated from uterus prior to uterus weight measurement.

[6] = 3 mg/kg orally once a day Monday to Friday
[7] = 0.3 mg/kg orally once a day Monday to Friday

| Structure (SMILES) | pKi [1] | activity at 0.1 µM [2] [%] | pIC50 [2] | further results |
| --- | --- | --- | --- | --- |
| CCN(Cc1ccc(CCN2CCCCCC2)s1)c1cc(OC)c(OC)cc1[C@@H]1CCc2cc(O)ccc2C1 [Example 259, (R)-6-{2-{[5-(2-Azepan-1-ylethyl)thiophen-2-ylmethyl]ethylamino}-4,5-dimethoxyphenyl}-5,6,7,8-tetrahydronaphthalen-2-ol] | 8.55 | 103 | 8.39 |  |
| O=C(c1ccc(OCCN2CCCCC2)cc1)c1c(-c2ccc(O)cc2)sc2cc(O)ccc12 [Raloxifene, 6-hydroxy-2-(4-hydroxyphenyl)-3-[4-(2-piperidinoethoxy)benzoyl]benz[b]thiophene, reference compound] |  |  |  | Deoxypyridinoline, 5 weeks (ovariectomized rats [3]; [6]): 8.83 ± 0.41 nM/mg/dl; Deoxypyridinoline, 8 weeks (ovariectomized rats [3]; [6]): 10.87 ± 1.16 nM/mg/dl; Bone Mineral Density, Distal femur (ovariectomized rats [4]; 3 mg/kg orally): 0.254 ± 0.002 g/cm^2; Bone Mineral Density, Lumber 5 (ovariectomized rats [4]; 3 mg/kg orally): 0.160 ± 0.003 g/cm^2; Bone Mineral Density, Whole femur (ovariectomized rats [4]; 3 mg/kg orally): 0.239 ± 0.002 g/cm^2; Effect on uterus wet weight (in words) (ovariectomized rats [5]; rat, in vivo): slightly increased uterus wet weight to the same level |
| CCN(Cc1ccc(OCCN2CCCCCC2)cc1)c1cc(O)ccc1[C@@H]1CCc2cc(O)ccc2C1 [190 (R), (R)-6-{2-{[4-(2-azepan-1-ylethoxy)benzyl]ethylamino}-4-hydroxyphenyl}-5,6,7,8-tetrahydronaphthalen-2-ol] | 9.00 | 124 | 8.10 |  |
| CCN(Cc1ccc(OCCN2CCCCCC2)nc1)c1cc(OC)ccc1[C@@H]1CCc2cc(O)ccc2C1 [Example 228, (R)-6-{2-{[6-(2-Azepan-1-ylethoxy)pyridin-3-ylmethyl]ethylamino}-4-methoxyphenyl}-5,6,7,8-tetrahydronaphthalen-2-ol] | 8.64 | 101 | 8.58 |  |
| C[C@]12CC[C@@H]3c4ccc(O)cc4CC[C@H]3[C@@H]1CC[C@@H]2O [Estradiol, reference compound] |  |  |  | Deoxypyridinoline, 5 weeks (ovariectomized rats [3]; [7]): 12.06 ± 1.60 nM/mg/dl; Deoxypyridinoline, 8 weeks (ovariectomized rats [3]; [7]): 11.61 ± 2.10 nM/mg/dl; Bone Mineral Density, Distal femur (ovariectomized rats [4]; 0.3 mg/kg orally): 0.250 ± 0.001 g/cm^2; Bone Mineral Density, Lumber 5 (ovariectomized rats [4]; 0.3 mg/kg orally): 0.150 ± 0.005 g/cm^2; Bone Mineral Density, Whole femur (ovariectomized rats [4]; 0.3 mg/kg orally): 0.237 ± 0.001 g/cm^2; Uterus (wet weight) (ovariectomized rats [5]; OVX rats, 0.3 mg/kg orally, 8 weeks): 0.213 ± 0.013 g |
| CCN(Cc1ccc(CCN2CCCCCC2)cn1)c1cc(OC)c(OC)cc1C1CCc2cc(O)ccc2C1 (stereo not shown) [Example 255, 6-{2-{[5-(2-Azepan-1-ylethyl)pyridin-2-ylmethyl]ethylamino}-4,5-dimethoxyphenyl}-5,6,7,8-tetrahydronaphthalen-2-ol] | 8.85 | 106 | 8.85 |  |
| CCN(Cc1ccc(CCN(C)C)cc1)c1cc(OC)c(OC)cc1[C@@H]1CCc2cc(O)ccc2C1 [Example 741, (R)-6-{2-{[4-(2-Dimethylaminoethyl)benzyl]ethylamino}-4,5-dimethoxyphenyl}-5,6,7,8-tetrahydronaphthalen-2-ol] | 9.70 | 98 | 8.69 |  |
| CCOCCN(C)CCOc1ccc(CN(CC)c2cc(OC)ccc2[C@@H]2CCc3cc(O)ccc3C2)cc1 [Example 618, (R)-6-{2-{{4-{2-[(2-Ethoxyethyl)methylamino]ethoxy}benzyl}ethylamino}-4-methoxyphenyl}-5,6,7,8-tetrahydronaphthalen-2-ol] | 8.54 | 96 | 8.54 |  |
| CC/C(=C(\c1ccccc1)c1ccc(OCCN(C)C)cc1)c1ccccc1 [Comparative Example, Tamoxifen, reference compound] |  | 133 |  |  |
| CN(Cc1ccc(OCCN2CCCCC2)cc1)c1cc(O)ccc1CCc1ccc(O)cc1 [Example 343, 4-[2-(4-Hydroxyphenyl)ethyl]-3-{methyl-[4-(2-piperidin-1-ylethoxy)benzyl]amino}phenol] | 7.51 |  |  |  |
| CCN(Cc1ccc(OCCN2CCCCCC2)cc1)c1cc(O)ccc1C1=Cc2ccc(O)cc2CC1(C)C [Example 311, 6-{2-{[4-(2-Azepan-1-ylethoxy)benzyl]ethylamino}-4-hydroxyphenyl}-7,7-dimethyl-7,8-dihydronaphthalen-2-ol] | 8.29 |  |  |  |
| CCN(Cc1ccc(OCCN2CCCCC2)c(F)c1)c1ccc(F)cc1C1CCc2cc(O)ccc2C1 (stereo not shown) [Example 295, 6-{2-{Ethyl[3-fluoro-4-(2-piperidin-1-ylethoxy)benzyl]amino}-5-fluorophenyl}-5,6,7,8-tetrahydronaphthalen-2-ol] | 7.77 |  |  |  |
